Test results: US11293023B2, “Tunable endogenous protein degradation” (Dana-Farber Cancer Institute, Inc., priority 2015, dated 2022)

What was measured:
[1] = target: T1, FKBP12WT (Homo sapiens, UniProt P62942); experiment: Immunoblot of wild type FKBP12 in 293FT cells (selectivity control); format: cell-based; settings: 293FT CRBN-WT or CRBN−/−, indicated concentrations, 4 hours
T1 construct: expressed in transfected cells; host or cells: 293FT cells (CRBN-WT or CRBN-/-)
Description: 293FT cells (CRBN-WT or CRBN−/−) expressing either HA-tagged FKBP12WT or FKBP* were treated with indicated concentrations of dFKBP7 for 4 hours.
Isogenic 293FT cells (CRBN-WT or CRBN−/−) expressing either FKBP12WT or FKBP* were treated with 100 nM of either dFKBP7 or dFKBP13 for 4 hours.
The dTAG is predicated on the selectivity of FKBP* specific ligands over endogenous, wild type FKBP. […] 293FT cells (CRBN-WT or CRBN−/−) expressing either HA-tagged FKBP12WT or FKBP* were treated with indicated concentrations of dFKBP7 for 4 hours.
Isogenic 293FT cells (CRBN-WT or CRBN−/−) were engineered to expressed either FKBP12WT or FKBP*. Cells were treated with 100 nM of either dFKBP7 or dFKBP13 for 4 hours before lysates were prepared for western immunoblot analysis.

[2] = tested on: dTAG-KRAS alleles (WT, G12C, G12D, G12V, G13D, Q61L, Q61R); experiment: Immunoblot of dTAG-KRAS WT and mutant alleles in NIH3T3 cells; format: cell-based; settings: 1 uM, 24 hours
Description: FIG. 16 is an immunoblot of NIH3T3 cells expressing KRAS alleles either WT or mutant forms of amino acid glycine 12 (G12C, G12D, and G12V) treated with 1 uM of dFKBP13 for 24 hours.
FIG. 17 is an immunoblot of NIH3T3 cells expressing either WT or mutant KRAS alleles (G13D, Q61L, and Q61R) treated with 1 uM of dFKBP13 for 24 hours.
(§1) The dFKBP13 heterobifunctional compound potently degrades dTAG-KRAS mutant alleles. NIH3T3 cells were engineered to express KRAS alleles either WT or mutant forms of amino acid glycine 12 (G12C, G12D, and G12V). Western blotting of NIH3T3 cells expressing dTAG fused to the N-terminus of KRAS alleles were treated with 1 uM of dFKBP13 for 24 hours. Cells were harvested and immunoblotted to measure degradation of dTAG-KRAS and downstream surrogates of KRAS signaling (e.g. pMEK and pAKT).
as §1, with “express” for “express KRAS alleles”, “KRAS alleles (G13D, Q61L,” for “forms of amino acid glycine 12 (G12C, G12D,”, “Q61R).” for “G12V).”

T1 sequence (P62942 whole entry): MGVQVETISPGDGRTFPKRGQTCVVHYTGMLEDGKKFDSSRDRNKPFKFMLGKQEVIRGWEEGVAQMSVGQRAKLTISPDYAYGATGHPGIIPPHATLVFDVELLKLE

CC[C@H](C(=O)N1CCCC[C@H]1C(=O)O[C@H](CCc1ccc(OC)c(OC)c1)c1cccc(OCC(=O)NCCCOCCOCCOCCCNC(=O)COc2cccc3c2C(=O)N(C2CCC(=O)NC2=O)C3=O)c1)c1cc(OC)c(OC)c(OC)c1 (stereo partly drawn) [dFKBP7]
degradation of HA-tagged FKBP12WT [1]: not FKBPWT

CC[C@H](C(=O)N1CCCC[C@H]1C(=O)O[C@H](CCc1ccc(OC)c(OC)c1)c1cccc(OCC(=O)NCCCCCCOc2cccc3c2C(=O)N(C2CCC(=O)NC2=O)C3=O)c1)c1cc(OC)c(OC)c(OC)c1 (stereo partly drawn) [dFKBP13]
degradation of dTAG-KRAS alleles ([2]; G12C, G12D, G12V): potent degradation of WT and mutant KRAS alleles
degradation of dTAG-KRAS alleles ([2]; G13D, Q61L, Q61R): potent degradation of WT and mutant KRAS alleles
